Experimental data reported in US12077503B2, “Substituted cyclic amides and their use as herbicides” (FMC CORPORATION, priority 2015, dated 2024).

How the values were obtained:
Experiment in all cases: Test C preemergence
Assay type in all cases: in vivo
[1] = test system: velvetleaf (Abutilon theophrasti); details: for Plant response rating, Velvetleaf: scale 0 to 100, 0 no effect, 100 complete control
How it was run: (§1)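 Visual rating, 0–100 scale (0 = no effect, 100 = complete control) versus controls, 13–15 d after treatment. Compounds in non-phytotoxic solvent plus surfactant; applied preemergence to seeds in loam/sand soil or postemergence to 1- to 4-leaf plants (2–18 cm) in peat/vermiculite medium; greenhouse-held.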

[2] = test system: ryegrass, Italian (Italian ryegrass, Lolium multiflorum); details: for Plant response rating, Ryegrass, Italian: scale 0 to 100, 0 no effect, 100 complete control
How it was run: as §1

[3] = test system: johnsongrass (Sorghum halepense); details: for Plant response rating, Johnsongrass: scale 0 to 100, 0 no effect, 100 complete control
How it was run: as §1

[4] = test system: Galium (catchweed bedstraw, Galium aparine); details: for Plant response rating, Galium: scale 0 to 100, 0 no effect, 100 complete control
How it was run: as §1

[5] = test system: waterhemp (common waterhemp, Amaranthus rudis); details: for Plant response rating, Waterhemp: scale 0 to 100, 0 no effect, 100 complete control
How it was run: as §1

[6] = test system: morningglory (Ipomoea coccinea); details: for Plant response rating, Morningglory: scale 0 to 100, 0 no effect, 100 complete control
How it was run: as §1

[7] = test system: lambsquarters (Chenopodium album); details: for Plant response rating, Lambsquarters: scale 0 to 100, 0 no effect, 100 complete control
How it was run: as §1

[8] = test system: ragweed (common ragweed, Ambrosia elatior); details: for Plant response rating, Ragweed: scale 0 to 100, 0 no effect, 100 complete control
How it was run: as §1

[9] = test system: nutsedge, yellow (yellow nutsedge, Cyperus esculentus); details: for Plant response rating, Nutsedge, Yellow: scale 0 to 100, 0 no effect, 100 complete control
How it was run: as §1

[10] = test system: blackgrass (Alopecurus myosuroides); details: for Plant response rating, Blackgrass: scale 0 to 100, 0 no effect, 100 complete control
How it was run: as §1

[11] = test system: foxtail, giant (giant foxtail, Setaria faberii); details: for Plant response rating, Foxtail, Giant: scale 0 to 100, 0 no effect, 100 complete control
How it was run: as §1

[12] = test system: wheat (winter wheat, Triticum aestivum); details: for Plant response rating, Wheat: scale 0 to 100, 0 no effect, 100 complete control
How it was run: as §1

[13] = test system: pigweed (Amaranthus retroflexus); details: for Plant response rating, Pigweed: scale 0 to 100, 0 no effect, 100 complete control
How it was run: as §1

corn (Zea mays) = details: for Plant response rating, Corn: scale 0 to 100, 0 no effect, 100 complete control
How it was run: as §1

[14] = test system: oilseed rape (Brassica napus); details: for Plant response rating, Oilseed Rape: scale 0 to 100, 0 no effect, 100 complete control
How it was run: as §1

[15] = test system: crabgrass, large (large crabgrass, Digitaria sanguinalis); details: for Plant response rating, Crabgrass, Large: scale 0 to 100, 0 no effect, 100 complete control
How it was run: as §1

soybean (Glycine max) = details: for Plant response rating, Soybean: scale 0 to 100, 0 no effect, 100 complete control
How it was run: as §1

[16] = test system: barnyardgrass (Echinochloa crus-galli); details: for Plant response rating, Barnyardgrass: scale 0 to 100, 0 no effect, 100 complete control
How it was run: as §1

[17] = 31 g ai/ha, 0 is no effect, 100 is complete control

Cc1ccc(C2CN(C)C(=O)C2C(=O)Nc2cccc(F)c2F)cc1 (stereo not drawn) [Compound 662]
Plant response rating (scale of 0 to 100), Velvetleaf [1, 17]: 35
Plant response rating, Velvetleaf ([1]; 62 g ai/ha): 50
Plant response rating, Velvetleaf ([1]; 125 g ai/ha): 70
Plant response rating, Velvetleaf ([1]; 250 g ai/ha): 75
Plant response rating (scale of 0 to 100), Ryegrass, Italian [2, 17]: 50
Plant response rating, Ryegrass, Italian ([2]; 62 g ai/ha): 70
Plant response rating, Ryegrass, Italian ([2]; 125 g ai/ha): 80
Plant response rating, Ryegrass, Italian ([2]; 250 g ai/ha): 95
Plant response rating (scale of 0 to 100), Johnsongrass [3, 17]: 60
Plant response rating, Johnsongrass ([3]; 62 g ai/ha): 70
Plant response rating, Johnsongrass ([3]; 125 g ai/ha): 90
Plant response rating, Johnsongrass ([3]; 250 g ai/ha): 90
Plant response rating (scale of 0 to 100), Galium [4, 17]: 90
Plant response rating, Galium ([4]; 62 g ai/ha): 100
Plant response rating, Galium ([4]; 125 g ai/ha): 100
Plant response rating, Galium ([4]; 250 g ai/ha): 90
Plant response rating (scale of 0 to 100), Waterhemp [5, 17]: 60
Plant response rating, Waterhemp ([5]; 62 g ai/ha): 80
Plant response rating, Waterhemp ([5]; 125 g ai/ha): 85
Plant response rating, Waterhemp ([5]; 250 g ai/ha): 90
Plant response rating (scale of 0 to 100), Morningglory [6, 17]: 0
Plant response rating, Morningglory ([6]; 62 g ai/ha): 0
Plant response rating, Morningglory ([6]; 125 g ai/ha): 30
Plant response rating, Morningglory ([6]; 250 g ai/ha): 25
Plant response rating (scale of 0 to 100), Lambsquarters [7, 17]: 100
Plant response rating, Lambsquarters ([7]; 62 g ai/ha): 85
Plant response rating, Lambsquarters ([7]; 125 g ai/ha): 100
Plant response rating, Lambsquarters ([7]; 250 g ai/ha): 100
Plant response rating (scale of 0 to 100), Ragweed [8, 17]: 70
Plant response rating, Ragweed ([8]; 62 g ai/ha): 75
Plant response rating, Ragweed ([8]; 125 g ai/ha): 80
Plant response rating, Ragweed ([8]; 250 g ai/ha): 85
Plant response rating (scale of 0 to 100), Nutsedge, Yellow [9, 17]: 0
Plant response rating, Nutsedge, Yellow ([9]; 62 g ai/ha): 0
Plant response rating, Nutsedge, Yellow ([9]; 125 g ai/ha): 0
Plant response rating, Nutsedge, Yellow ([9]; 250 g ai/ha): 0
Plant response rating (scale of 0 to 100), Blackgrass [10, 17]: 70
Plant response rating, Blackgrass ([10]; 62 g ai/ha): 75
Plant response rating, Blackgrass ([10]; 125 g ai/ha): 95
Plant response rating, Blackgrass ([10]; 250 g ai/ha): 98
Plant response rating (scale of 0 to 100), Foxtail, Giant [11, 17]: 95
Plant response rating, Foxtail, Giant ([11]; 62 g ai/ha): 95
Plant response rating, Foxtail, Giant ([11]; 125 g ai/ha): 95
Plant response rating, Foxtail, Giant ([11]; 250 g ai/ha): 98
Plant response rating (scale of 0 to 100), Wheat [12, 17]: 35
Plant response rating, Wheat ([12]; 62 g ai/ha): 70
Plant response rating, Wheat ([12]; 125 g ai/ha): 90
Plant response rating, Wheat ([12]; 250 g ai/ha): 90
Plant response rating (scale of 0 to 100), Pigweed [13, 17]: 70
Plant response rating, Pigweed ([13]; 62 g ai/ha): 60
Plant response rating, Pigweed ([13]; 125 g ai/ha): 75
Plant response rating, Pigweed ([13]; 250 g ai/ha): 80
Plant response rating (scale of 0 to 100), Corn (corn (Zea mays); [17]): 55
Plant response rating, Corn (corn (Zea mays); 62 g ai/ha): 70
Plant response rating, Corn (corn (Zea mays); 125 g ai/ha): 80
Plant response rating, Corn (corn (Zea mays); 250 g ai/ha): 85
Plant response rating (scale of 0 to 100), Oilseed Rape [14, 17]: 70
Plant response rating, Oilseed Rape ([14]; 62 g ai/ha): 85
Plant response rating, Oilseed Rape ([14]; 125 g ai/ha): 90
Plant response rating, Oilseed Rape ([14]; 250 g ai/ha): 90
Plant response rating (scale of 0 to 100), Crabgrass, Large [15, 17]: 98
Plant response rating, Crabgrass, Large ([15]; 62 g ai/ha): 98
Plant response rating, Crabgrass, Large ([15]; 125 g ai/ha): 100
Plant response rating, Crabgrass, Large ([15]; 250 g ai/ha): 100
Plant response rating (scale of 0 to 100), Soybean (soybean (Glycine max); [17]): 0
Plant response rating, Soybean (soybean (Glycine max); 62 g ai/ha): 0
Plant response rating, Soybean (soybean (Glycine max); 125 g ai/ha): 0
Plant response rating, Soybean (soybean (Glycine max); 250 g ai/ha): 0
Plant response rating (scale of 0 to 100), Barnyardgrass [16, 17]: 95
Plant response rating, Barnyardgrass ([16]; 62 g ai/ha): 98
Plant response rating, Barnyardgrass ([16]; 125 g ai/ha): 98
Plant response rating, Barnyardgrass ([16]; 250 g ai/ha): 100
